“And” between values parts separate entries of the source, which are not always exact repeats. Equal entries are not always repeated.
Tests used:
[1] = system: ER+/HER2− locally advanced/metastatic breast cancer; test: FIH Study Part B (VERITAC): clinical benefit rate, PFS; assay type: in vivo, human
MCF7 cells = test: Live-cell imaging proliferation, MCF7; assay type: cell-based; conditions: Homo sapiens, 144 h; MCF7, up to 6 days
Description: Full growth of the cells over this time period is shown by extent of cell confluence with dimethyl sulfoxide (DMSO).

[2] = Plasma protein binding, mouse; assay type: in vitro ADME; conditions: read-out: free fraction
[3] = GLP cardiovascular telemetry study in beagle dogs with TK phase; assay type: in vivo, dog
Protocol: A lead-in single-dose TK and tolerability study conducted prior to the telemetry study indicated approximately dose-proportional increase in exposure between 200 and 400 mg/kg in the dog.

[4] = 3-month GLP oral toxicity study in dogs; assay type: in vivo, dog; conditions: for Cmax / AUC(0-t): plasma, po, Day 91; for AUC(0-t): read-out: AUC0-24
Protocol: Male and female Beagle dogs, 4/sex/group, were administered 0 (vehicle), 10, 30, or 90 mg/kg/day. Assessment of toxicity was based on clinical observations, BWs, food consumption, ophthalmology, ECG evaluations, and clinical and anatomic pathology.

ERP = ERP (Homo sapiens, UniProt Q92731); test: Secondary pharmacodynamics binding, ERP; conditions: in vitro
Chain of ERP (Q92731 whole entry): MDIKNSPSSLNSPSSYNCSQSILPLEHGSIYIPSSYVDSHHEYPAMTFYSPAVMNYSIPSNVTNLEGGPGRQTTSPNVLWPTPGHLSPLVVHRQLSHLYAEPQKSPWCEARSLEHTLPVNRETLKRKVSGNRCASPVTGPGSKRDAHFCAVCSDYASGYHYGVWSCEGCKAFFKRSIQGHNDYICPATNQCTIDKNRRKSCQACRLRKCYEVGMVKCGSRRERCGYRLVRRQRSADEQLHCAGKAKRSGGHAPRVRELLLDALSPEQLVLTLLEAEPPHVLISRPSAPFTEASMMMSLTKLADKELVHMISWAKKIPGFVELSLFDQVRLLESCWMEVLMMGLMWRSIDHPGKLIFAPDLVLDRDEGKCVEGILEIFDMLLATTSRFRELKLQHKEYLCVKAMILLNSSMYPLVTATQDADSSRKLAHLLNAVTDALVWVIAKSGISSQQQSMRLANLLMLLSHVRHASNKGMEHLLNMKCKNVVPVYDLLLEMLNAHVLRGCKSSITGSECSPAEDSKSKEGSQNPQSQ

[5] = Clinical Pharmacology Study Fed/Fasted cohort: food effect on single-dose PK; assay type: in vivo, human; conditions: 200 mg single dose
Description: (§1) Study Design: The Clinical Pharmacology Study consists of 3 independent cohorts: 1) an open-label, randomized, 2-period, crossover Fed/Fasted cohort to determine food effects; 2) an open-label, 2-period, fixed sequence PPI cohort to evaluate interactions with esomeprazole; and 3) an open-label, randomized, 2 period, crossover rBA cohort to evaluate 2 tablet formulations.
Compound A should be taken with food.

[6] = 3-month GLP oral toxicity study in rats; assay type: in vivo, rat; conditions: for AUC(0-t) / Cmax: po, 300 mg/kg/day
Protocol: Male and female rats, 10/sex/group, were administered 0 (vehicle), 30, 100, or 300 mg/kg/day. Assessment of toxicity was based on mortality, clinical observations, BWs, food consumption, ophthalmic examinations, and clinical and anatomic pathology. Blood samples for TK were obtained from a satellite group of animals.

[7] = Clinical Pharmacology Study PPI (esomeprazole) cohort: single-dose PK; assay type: in vivo, human; conditions: 200 mg
Description: as §1

[8] = pH effect on absorption with famotidine in fasted rats and dogs; assay type: in vivo; conditions: spray-dried dispersion
MCF7/estradiol xenograft = MCF7/estradiol xenograft tumor growth inhibition; assay type: in vivo, mouse
Protocol: (§2) The 30 mg/kg dose was associated with a mean AUC0-24 of 5,717 ng·h/mL. The tumor ER levels were reduced by ≥94% at all doses compared to mice administered vehicle only (FIG. 3B).
(§3) The 30 mg/kg dose was associated with a mean AUC0-24 of 5,717 ng·h/mL.

[9] = MCF7/estradiol xenograft tumor growth inhibition; assay type: in vivo, mouse; conditions: in vivo, oral; mouse, 30 mg/kg; read-out: mean AUC0-24
Protocol: as §2, §3

ER = ER expression in paired tumor biopsies (FIH Part A); assay type: in vivo, human; conditions: 14 paired biopsies, doses up to 500 mg QD, WT or mutant ER
[10] = Preliminary embryo-fetal development study
[11] = both sexes, beagle, plasma, dog n=8, 400 mg/kg single oral, TK phase
[12] = Beagle, dog, female dogs, 90 mg/kg/day
[13] = Beagle, dog, male dogs, 90 mg/kg/day
[14] = female, Sprague-Dawley, rat, in vivo, oral, 30 mg/kg/day

In the case of `O=C1CC[C@H](N2Cc3cc(N4CCN(CC5CCN(c6ccc([C@@H]7c8ccc(O)cc8CC[C@@H]7c7ccccc7)cc6)CC5)CC4)ccc3C2=O)C(=O)N1` [Compound A, (S)-3-(5-(4-((1-(4-((1R,2S)-6-hydroxy-2-phenyl-1,2,3,4-tetrahydronaphthalen-1-yl)phenyl)piperidin-4-yl)methyl)piperazin-1-yl)-1-oxoisoindolin-2-yl)piperidine-2,6-dione], the median progression-free survival ([1]; 200 mg QD, all evaluable, 95% CI 1.8-7.8) is reported as 3.5 months, the PFS ([1]; ITT (n=71)) is reported as 3.7 months and the GI50 (MCF7 cells) is reported as 4 nM. The fraction unbound at 1 μM [2] was 0.061, the Cmax [3, 11] was 16000 ng/mL and the Tmax [3, 11] was 5.1 h. For the same compound, the AUC(0-t) ([3]; both sexes, beagle, plasma, dog n=8, 400 mg/kg single oral, TK phase, read-out: mean AUC0-24) was 272000 ng·h/mL, the “QT- or QTc-interval” value ([3]; dog, 400 mg/kg) was “no changes in QT- or QTc-interval” and the “shortening of the PR interval” value ([3]; dog, 400 mg/kg, 1 to 3.25 hours postdose) was 7 ms. The cardiovascular effects ([3]; dog, single oral 90 and 200 mg/kg) was “No Compound A-related effects were noted”, the NOAEL at 3 months ([4]; Beagle, dog, in vivo, oral, male dogs, 3 months) was 90 mg/kg/day and the Cmax [4, 12] was 4250 ng/mL. It also gave an AUC(0-t) [4, 12] of 73100 ng·h/mL, a Cmax [4, 13] of 4880 ng/mL and an AUC(0-t) [4, 13] of 83500 ng·h/mL. The ECG intervals ([4]; dog, 90 mg/kg/day, Day 85) was “nonadverse increases in QT-, QTc-, and PR-intervals”, the NOAEL ([4]; female dogs, 3 months) was “A NOAEL was not identified” and the binding (ERP) was “bound”. The “increase of AUCinf by high-fat meal” value [5] was 125%, the “increase of AUCinf by high-fat meal vs fasted” value [5] was 2.2 fold and 2 fold and the “increase of Cmax by high-fat meal” value [5] was 184%. The “increase of Cmax by high-fat meal vs fasted” value [5] was 2.8 fold and 3 fold, the “sex differences in Cmax and AUC0-24” value ([6]; both, rat, in vivo) was “less than 2 fold” and the NOAEL ([6]; female rats, 3 months oral) was “a NOAEL was not determined”. It also gave an AUC(0-t) ([6]; female, rat, in vivo) of 75000 ng·h/mL, a Cmax ([6]; female, rat, in vivo) of 3710 ng/mL and an AUC(0-t) ([6]; male, rat, in vivo) of 88500 ng·h/mL. For the same compound, the Cmax ([6]; male, rat, in vivo) was 4330 ng/mL, the NOAEL at 3 months ([6]; rat, in vivo, male rats, 3 months oral) was 300 mg/kg/day and the “AUC with PPI vs without PPI” value [7] was “similar”. For the same compound, the “decrease of median Cmax by PPI” value [7] was “about 18%”, the “decrease of AUCinf by multiple doses of esomeprazole 40 mg” value ([7]; moderate-fat meal) was 11% and the “decrease of Cmax by multiple doses of esomeprazole 40 mg” value ([7]; moderate-fat meal) was 17.1%. The “pH effect on absorption with famotidine” value [8] was “lowered PK at neutral pH”, the TGI (MCF7/estradiol xenograft; 3 mg/kg PO QD 28 days) was 85% and the TGI (MCF7/estradiol xenograft; 10 mg/kg PO QD 28 days) was 98%. The TGI (MCF7/estradiol xenograft; 30 mg/kg PO QD 28 days) was 124%, the AUC(0-t) [9] was 5720 ng·h/mL and the “ER degradation, median decrease” value (ER) was 67%. The “TK animals confirmed pregnant at GD 18” value ([10]; 30 mg/kg) was 5/6, the “females with pregnancy confirmed at GD 21” value (“females” for short) ([10]; 30 mg/kg) was 7/8 and the post implantation loss ([10]; 30 mg/kg/day) was 47.31%. The “mean number of live fetuses” value ([10]; 30 mg/kg/day, controls 11.3) was 7.0 live fetuses/litter, the “TK animals confirmed pregnant at GD 18” value ([10]; 100 mg/kg) was 3/6 and the “females” value ([10]; 100 mg/kg) was 4/8. For the same compound, the “mean number of live fetuses” value ([10]; 100 mg/kg/day) was “no live fetuses/litter”, the post implantation loss ([10]; 100 mg/kg/day) was 100% and the “TK animals confirmed pregnant at GD 18” value ([10]; 300 mg/kg) was 0/6. For the same compound, the “females” value ([10]; 300 mg/kg) was 0/8, the AUC(0-t) [10, 14] was 4380 ng·h/mL and the Cmax [10, 14] was 291 ng/mL. The “external or visceral malformations or variations” value ([10]; surviving fetuses, 30 mg/kg/day) was “did not produce any external or visceral malformations or variations”.

From patent US20260069588A1, “VEPDEGESTRANT FOR USE IN TREATING CANCER” (Arvinas Operation, Inc., priority 2022, published 2026)
